The source of these data is patent publication US7812009B2, “Mastitis treatment” (Intervet International B.V., priority 2002, dated 2010).

Each structure is given as a SMILES string.

Series [1] relates to cows with endotoxin-induced mastitis. The experiment in a line: Udder scores (local inflammation) in cows with E. coli endotoxin-induced mastitis. In kind it is in vivo. As for the experimental part:
Twenty-four cows were allotted to four groups of 6 cows each, according to milk production and parity. All cows were intramammary infused into two homo-lateral quarters with 100 μg Escherichia coli endotoxin (purified lipopolysacchide (LPS) obtained from E. coli 0111:B4) in 20 ml saline.
The test preparations contained cephapirin and prednisolone in an oily carrier. Four different dose levels of prednisolone were tested: 0 mg (group 1), 10 mg (group 2), 20 mg (group 3) and 40 mg (group 4) per injector (8 g) together with 200 mg of cephapirin sodium.
Cows were treated with the contents of one injector per endotoxin infused quarter when the first signs of clinical mastitis were evident, i.e. 1.5 hours after endotoxin infusion. The next three treatments were infused immediately after consecutive afternoon or morning milkings (12 hours interval) during 2 days. In total four treatments were administered.
Udder scores: The condition and swelling of quarters were determined by palpation once daily after morning milking from day−7 to day−1 relative to endotoxin infusion and twice daily after milkings from day+1 to day+6 relative to endotoxin infusion. The day of endotoxin infusion, swelling of quarters was assessed by palpation approximately every half hour during ±12.5 hours after infusion. The scoring system provides scores 0 to 4. Higher values refer to increased and more severe signs of local inflammation.

Series [2] concerns pathogen identified on day 0 (clinical mastitis). The series can be described thus: Field study: bacteriological cure rate in clinical mastitis. It is filed as in vivo, cows. As to conditions: higher dosage of prednisolone (20 mg) versus 10 mg, field conditions. How it is done:
Lactating cows with clinical mastitis in a single quarter (571) were treated intramammarily either with a composition A (n=260) comprising 300 mg cefapirin sodium and 20 mg of prednisolone four times with a 12 h interval or with composition B (n=254) comprising 200 mg amoxicilline, 50 mg clavulanic acid and 10 mg of prednisolone three times with a 12 h interval. These administration schedules correspond to the recommended dosage of the products. The efficacy of the treatment was determined by the bacteriological cure rate (elimination of pathogen identified on day 0) at day 14, and day 21 and the clinical cure rate (affected quarter produces normal milk and no signs of clinical mastitis anymore) at days 14 and 21.
Bacteriological cure: A cow was considered as bacteriologically cured when, both on Days 14 and 21, the milk sample from the affected quarter was free from pathogen(s) present at day 0 (at admission prior to treatment). For clinical mastitis, treatment were considered as a failure for which cows were not yet clinically cured on the first post-treatment sampling (Day 14). […]
The parameters for efficacy are the outcome variables “bacteriological cure” (cure/non-cure) and “clinical cure” (cure/non-cure). The results in Table 3 and FIG. 6 are expressed as numbers and percentages of cows cured.

Series [3] deals with non-bacterial E. coli endotoxin induced clinical mastitis. To be noted: intramammary infusion of 40 mg/unit dose; experimental conditions; cited from earlier work.
Series [4] has as its system experimental Streptococcus uberis mastitis. The experiment in a line: Rectal temperature in cows with experimental Streptococcus uberis mastitis. In kind it is in vivo. To be noted: cephapirin alone, intramammary, 4 infusions.
Method: Eighteen lactating cows were intramammarily inoculated into the two left quarters with Streptococcus uberis (±1000 CFU/quarter). At 2 days after challenge, when all cows had clinical signs of mastitis (i.e. quarter foremilk modification and/or udder swelling), cows were allotted to three groups of six cows each, to produce groups with similar parity and milk production.
One group was treated with cephapirin alone (group 1), one group was treated with cephapirin and 20 mg prednisolone (group 2) and one group was non-treated (group 3). Cows included in group 1 and group 2 were treated in the 2 left inoculated quarters at day 2 after challenge. The first treatment was applied after a morning milking, and the following three infusions were performed immediately after the next 3 consecutive milkings. Cows of group 3 were left untreated. […] The rectal temperature was determined from day 9 before first treatment up to day 19 after first treatment.
The next series deals with leukocytes in blood. The series can be described thus: Number of leukocytes in blood from cows with endotoxin-induced mastitis. It is filed as in vivo.
In the next series the test system is blood PMN. The experiment in a line: Chemotaxis of blood PMN from cows with endotoxin-induced mastitis. It is filed as in vivo.
[5] abbreviates: 1.5 hours relative to endotoxin infusion (before first treatment).
Setting [6] is: 8 hours relative to endotoxin infusion, treatments at 2, 8, 24 and 36 hours.
Setting [7] is: 24 hours relative to endotoxin infusion, treatments at 2, 8, 24 and 36 hours.
Setting [8] is: 72 hours relative to endotoxin infusion, treatments at 2, 8, 24 and 36 hours.
Where [9] appears, read: −24 hours relative to endotoxin infusion (before treatment).

Method for blood PMN: (§1) Fifteen cows were allotted to three groups of 5 cows each, according to milk production and parity. Cows were intramammary infused into 2 homo-lateral quarters with 100 μg Escherichia coli endotoxin (purified lipopolysacchide (LPS) obtained from E. coli 0111:B4) in 20 ml saline.
(§2) Cows were treated with the contents of one injector per endotoxin infused quarter when the first signs of clinical mastitis were evident, i.e. approximately 2 hours after endotoxin infusion. One group was treated with 300 mg of cephapirin, one group with 300 mg of cephapirin and 20 mg of prednisolone and one group was the non-treated control. The test preparations contained cephapirin and prednisolone in an oil carrier.
(§3) Blood samples were collected from the jugular vein at 24 hours before endotoxin infusion and 1.5, 8, 48 and 72 hours after endotoxin infusion.
Method for leukocytes in blood: as §1, §2, §3

For `C[C@]12C=CC(=O)C=C1CC[C@@H]1[C@@H]2[C@@H](O)C[C@@]2(C)[C@H]1CC[C@]2(O)C(=O)CO` [prednisolone, (11β)-11,17,21-trihydroxypregna-1,4-diene-3,20-dione], the “dose effect relation of prednisolone and sum of udder scores” value in series [1] (0, 10, 20, 40 mg prednisolone per injector with 200 mg cephapirin sodium, higher dosages gave lower sum of udder scores) is recorded as “clear dose effect relation”. Besides, the “sum of udder scores compared to placebo quarters” value in series [1] (20 mg prednisolone per injector with 200 mg cephapirin sodium, intramammary, 4 treatments, from 8 hours post infusion up to evening milking of day 5) is recorded as “lower sum of udder scores”. In series [1] (40 mg prednisolone per injector with 200 mg cephapirin sodium, intramammary, 4 treatments, from 8 hours post infusion up to evening milking of day 5), the “sum of udder scores compared to placebo quarters (0 mg prednisolone) and quarters treated with 10 mg prednisolone” value is “significantly lower”. Besides, in series [2], the “influence on the bacteriological cure rate” value is on record as “did not negatively influence”. Also, the “effects on local and systemic inflammatory signs” value in series [3] is on record as “improved effects”.

For the compound `CC(=O)OCC1=C(C(=O)O)N2C(=O)[C@@H](NC(=O)CSc3ccncc3)[C@H]2SC1` [Cephapirin], the “average rectal temperature after treatment” value in series [4] is “decreased slowly”. Besides, the “Number of leukocytes in blood (mean)” value in the series on leukocytes in blood (setting [5]) turned out to be 8157; with leukocytes in blood (setting [6]), 6329; in the series with leukocytes in blood (setting [7]) it was 12148; in the series on leukocytes in blood (setting [8]), 11317; in the series with leukocytes in blood (setting [9]) it was 8217. Also, the “Chemotactic PMN (mean)” value was found to be 1.404e+06 mL⁻¹ with blood PMN (setting [5]); 142000 mL⁻¹ in the series with blood PMN (setting [6]); 650000 mL⁻¹ with blood PMN (setting [7]); 135000 mL⁻¹ with blood PMN (setting [8]); 2.115e+06 mL⁻¹ in the series on blood PMN (setting [9]).
